Experimental data: patent US20090305276A1, “Method for Predicting Skin Sensitizing Activity of Compounds” (priority 2008, published 2009)
Where two headings read alike, the source gives them in different places.

How the values were obtained:
IL-8 = IL-8 (interleukin-8) marker gene expression in cultured mammalian cells; format: cell-based; set-up: key: The ++ signs indicate positive response and the number represents the magnitude of response; The ++ signs indicate positive response and the number represents the magnitude of response; −−−: The dashed lines indicate no measurable response; −−−−: The dashed lines indicate no measurable response; −−−−−: The dashed lines indicate no measurable response; conditions: gene marker response, preliminary data
Source text: (§1) Specifically, chemicals would be placed in an appropriate vehicle such as DMSO and applied to appropriate mammalian cells, such as human keratinocytes (HaCat cells), 3D human skin cells, normal human epithelial cells (NHEK cells), MCF7 cells, H4IIE cells (ATCC Accession #CRL-1548), or combination cultures including keratinocyte and dendritic cells. Following exposure times of 6, 24, and 72 hr the expression levels of several genes that are associated with an increase risk for sensitization type reactions. The expression of key gene markers associated with sensitization that include but are not limited to quinone reductase, IL-8, CD-86, aldo-keto reductase, thioredoxin, and thioredoxin reductase is measured by RT-PCR.
(§2) In specific embodiments, the expression of gene markers is measured. Appropriate gene markers for the methods of the invention include but are not limited to quinone reductase, IL-8, CD-86, aldo-keto reductase, thioredoxin, and thioredoxin reductase. Expression levels may be measured by any appropriate method of measuring gene expression, including but not limited to polymerase chain reaction (PCR), reverse transcriptase PCR (RT-PCR), fluorescent in situ hybridization (FISH), branched DNA (bDNA) assay, differential display, RNA interference, reporter genes, microarrays, and proteomics. For instance, expression levels may be measured by RT-PCR in at least triplicates. The standard protocols for performing RT-PCR may be obtained from Invitrogen, (Carlsbad, Calif.). Standard methods and protocols for measuring gene expression are described in the literature and in treatises such as Sambrook et al., “Molecular Cloning: A Laboratory Manual” and Avison, Matthew, “Measuring Gene Expression,” Taylor and Francis (2006). These protocols are incorporated herein by reference in their entirety.
(§3) As shown in Table 2 (below), preliminary data were collected and used to build the algorithm for predicting the sensitization. NQO1 is quinone reductase; IL-8 is interleukin-8; and AKR is aldo-keto reductase.
(§4) The compounds listed in Table 2 are known skin sensitizers with different magnitudes of effect. In this example, three gene markers are measured to develop a relationship between the magnitude of response, the number of genes responding above about 15%, and the minimum exposure concentration where expression occurred. The ++ signs indicate positive response and the number represents the magnitude of response. The dashed lines indicate no measurable response.

AKR = AKR (aldo-keto reductase) marker gene expression in cultured mammalian cells; format: cell-based; set-up: key: The ++ signs indicate positive response and the number represents the magnitude of response; The ++ signs indicate positive response and the number represents the magnitude of response; −−−: The dashed lines indicate no measurable response; −−−−: The dashed lines indicate no measurable response; −−−−−: The dashed lines indicate no measurable response; conditions: gene marker response, preliminary data
Source text: as §1, §2, §3, §4

skin = conditions: cited from earlier work
NQO1 = NQO1 (quinone reductase) marker gene expression in cultured mammalian cells; format: cell-based; set-up: key: The ++ signs indicate positive response and the number represents the magnitude of response; The ++ signs indicate positive response and the number represents the magnitude of response; −−−: The dashed lines indicate no measurable response; −−−−: The dashed lines indicate no measurable response; −−−−−: The dashed lines indicate no measurable response; conditions: gene marker response, preliminary data
Source text: as §1, §2, §3, §4

[1] = test system: local draining lymph nodes (lymphocyte proliferation); conditions: known LLNA data; estimated concentration required to produce a stimulation index of 3; cited from earlier work
[2] = known skin sensitizers with different magnitudes of effect

O=C(O)c1ccccc1 [Benzoic Acid]
IL-8 (IL-8): −−−−− | AKR (AKR): −−−−− | Sensitizer Class (skin; [2]): Non- | NQO1 (NQO1): −−−−

O=C(C=Cc1ccccc1)OCc1ccccc1 [Benzyl Cinnamate]
IL-8 (IL-8): −−− | AKR (AKR): ++ | NQO1 (NQO1): ++

CC=Cc1ccc(O)c(OC)c1 [Isoeugenol]
IL-8 (IL-8): + | AKR (AKR): ++ | Sensitizer Class (skin; [2]): Moderate | LLNA E3C [1]: 110 | NQO1 (NQO1): +

O=C(Oc1ccccc1)c1ccccc1 [Phenyl Benzoate]
IL-8 (IL-8): + | AKR (AKR): −−−− | Sensitizer Class (skin; [2]): Weak | LLNA E3C [1]: 863 | NQO1 (NQO1): +

O=C1OC(=O)c2ccccc21 [Phthalic Anhydride]
IL-8 (IL-8): + | AKR (AKR): ++ | Sensitizer Class (skin; [2]): Strong | LLNA E3C [1]: 10.8 | NQO1 (NQO1): ++

CCCOC(=O)c1cc(O)c(O)c(O)c1 [Propyl Gallate]
IL-8 (IL-8): ++ | AKR (AKR): ++ | Sensitizer Class (skin; in vivo): Strong | LLNA E3C [1]: 15.09 | NQO1 (NQO1): ++

COc1cc(C=O)ccc1O [Vanillin]
IL-8 (IL-8): −−−− | AKR (AKR): −−−− | Sensitizer Class (skin; [2]): Very Weak | NQO1 (NQO1): +
